One series relates to HL-60. The series is described as follows: Cytotoxicity against human HL60 cells after 72 hrs by MTS method. The class given is functional, cell-based. Conditions: HL-60, 72 h. A general note: Tetrazolium assays rely on reduction of a dye to a coloured formazan, in cell work by metabolically active cells.
In another series the test system is NCI-H460. The series is described as follows: Cytotoxicity against human NCI-H460 cells after 72 hrs by MTS method. It is filed as functional, cell-based. Conditions: NCI-H460, 72 h.
Series [1] in a line: Dissociation constant, pKa of the compound. It is filed as physicochemical.

On to `CNC(=N)N(C)CCNc1c2ccccc2nc2ccccc12`, for which the IC50 worked out at 79.7 µM in the series with HL-60 and 10.3 µM with NCI-H460. Moreover, the pKa in series [1] was 9.

Take `CNC(=N)N(C)CCNC(=O)c1cccc2cc3ccccc3nc12`: the IC50 in the series with HL-60 is 8.4 µM; with NCI-H460, more than 100 µM.

With `CNC(=S)N(C)CCNC(=O)c1cccc2cc3ccccc3nc12`, the IC50 was more than 100 µM with HL-60 and 30.9 µM in the series with NCI-H460.

The compound `CNC(=S)N(C)CCNc1c2ccccc2nc2ccccc12` [ACRAMTU] displayed a pKa in series [1] of 9.

By IC50 is commonly meant the midpoint of a concentration-inhibition curve. The pKa is the negative logarithm of the acid dissociation constant. A lower pKa goes with a stronger acid or weaker base.

Values taken from ChEMBL document CHEMBL1157432, “Effect of linkage geometry on biological activity in thiourea- and guanidine-substituted acridines and platinum-acridines” (Bioorg Med Chem Lett, 2008).
